Measured values: patent publication US11179389B2, “Purine inhibitors of human phosphatidylinositol 3-kinase delta” (Merck Sharp & Dohme Corp., priority 2017, dated 2021)

Key:
PI3Kalpha = PI3Kalpha (Homo sapiens (Human), UniProt P42336); test: HTRF PI3K biochemical assay, alpha isoform (for selectivity ratio); conditions: ratio PI3K-alpha IC50 value / PI3K-delta IC50 value
Excerpt: (§1) HTRF PI3K Biochemical Assay to Measure Intrinsic Potency of Compound Inhibitors
(§2) The PI3-Kinase biochemical assays were developed to measure the intrinsic potency and compound dependent inhibition of the alpha, beta, delta, and gamma PI3K isoform enzymes. This assay was developed and further optimized from a kit produced by Upstate (Millipore catalog #33-047) (Millipore Sigma. Billerica Mass., USA) and has been configured for high throughput screening (HTS) and structure-activity relationship (SAR) screening. Briefly, this procedure exploits the exquisite specificity and high affinity binding of enzyme reaction […] phosphatidyl(3,4,5)triphosphate (PIP3) to the GRP1 pleckstrin homology (PH) domain to generate the signal. In the absence of PIP3, an HTRF (Homogeneous Time-Resolved Fluorescence energy transfer) complex is formed consisting of europium (Eu)-labeled anti-GST, GSTtagged GRP1-PH domain, biotin-PIP3 (biotinylated-PIP3) and streptavidin conjugated APC (Allophycocyanin). The native PIP3 produced by PI3-Kinase activity disrupts in a competitive manner the biotin-PIP3 from the pleckstrin homology (PH) domain, resulting in the loss of energy transfer (HTRF complex) and a decrease in the signal. The format of this assay is the same for all 4 isoforms of PI3K; the differences lie in the concentration of enzyme used to achieve robust assay window. The alpha, beta, and delta assays are run at 0.5, 1, and 0.3 nM enzymes and the gamma assay is run at 5 nM enzyme. The ATP concentration is 100 uM in the alpha, beta, and delta assays and 50 uM adenosine triphosphate (ATP) in the gamma assay. All reactions are run at 5 uM PIP2.
(§3) Compounds are serially diluted (3-fold in 100% DMSO) across a 384-well polypropylene source plated from column 3 to column 12 and column 13 to column 22, to yield 10 concentration dose response for each test compound. Columns 1, 2, 23 and 24 contain either only DMSO or pharmacological known control inhibitor. Once titrations are made, 2.5 nL of the compounds on 384 well plates are reformatted and transferred by acoustic dispense in quadruplicates to a 1536 assay plate (Greiner) to assay across all four PI3K isoform enzymes.
(§4) The PI3-Kinase biochemical assay was optimized using the HTRF kit provided by Upstate (Millipore). The assay kit contains six reagents: 1) 4×Reaction Buffer; 2) native PIP2 (substrate); 3) Stop (EDTA); 4) Detection Mix A (Streptavidin-APC); 5) Detection Mix B (Eu-labeled Anti-GST plus GST-tagged PH-domain): 6) Detection Mix C. In addition, the following items were obtained or purchased; PI3Kinase (catalog #'s alpha 14-602, beta 14-603, gamma 14-558 and delta 14-604 from Upstate Biotechnology now EMD Millipore, Mahopac, N.Y., USA), dithiothreitol (Sigma-Aldrich Corp. (St. Louis, Mo., USA) Catalog #D-5545), Adenosine-5′ triphosphate (InVitrogen (Waltham, Mass., USA), Cat#AS001 Å), native PIP3 (PI(3,4,5)P3, diC8, H^+, CELLSIGNALS, INC., (Columbus, Ohio, USA) Cat #907) DMSO ((Sigma-Aldrich Corp. (St. Louis. Mo., USA) Catalog #472301).
(§5) PI3Kinase Reaction Buffer is prepared by dilution the stock 1:4 with de-ionized water. DTT (DL-Dithiothreitol), phosphatidylinositol 4,5-bisphosphate (PIP2) and Biotin-PIP3 were added to 1536 assay plate at a final concentration of 5 mM, […] and 25 nM on the day of use. Enzyme addition and compound pre-incubation are initiated by the addition of 1.25 ul of PI3K (at twice its final concentration) in the 1× reaction buffer to all wells using a BioRaptor™. Plates are incubated at room temperature for 15 minutes. Reactions are initiated by addition of 1.25 ul of 2× substrate solution (PIP2 and ATP in 1× reaction buffer) using BioRaptor™. Plates are incubated in humidified chamber at room temperature for one hour. Reactions are quenched by addition of 0.625 uL of stop solution to all wells using the BioRaptor™. […]

PI3Kdelta = PI3Kdelta (Homo sapiens (Human), UniProt O00329); test: HTRF PI3K biochemical assay, delta isoform; conditions: 0.3 nM enzyme, 100 uM ATP, 5 uM PIP2, form screened per table (Neutral or TFA salt)
Excerpt: as §1, §2, §3, §4, §5

PI3Kalpha, sequence (P42336 whole entry, canonical isoform): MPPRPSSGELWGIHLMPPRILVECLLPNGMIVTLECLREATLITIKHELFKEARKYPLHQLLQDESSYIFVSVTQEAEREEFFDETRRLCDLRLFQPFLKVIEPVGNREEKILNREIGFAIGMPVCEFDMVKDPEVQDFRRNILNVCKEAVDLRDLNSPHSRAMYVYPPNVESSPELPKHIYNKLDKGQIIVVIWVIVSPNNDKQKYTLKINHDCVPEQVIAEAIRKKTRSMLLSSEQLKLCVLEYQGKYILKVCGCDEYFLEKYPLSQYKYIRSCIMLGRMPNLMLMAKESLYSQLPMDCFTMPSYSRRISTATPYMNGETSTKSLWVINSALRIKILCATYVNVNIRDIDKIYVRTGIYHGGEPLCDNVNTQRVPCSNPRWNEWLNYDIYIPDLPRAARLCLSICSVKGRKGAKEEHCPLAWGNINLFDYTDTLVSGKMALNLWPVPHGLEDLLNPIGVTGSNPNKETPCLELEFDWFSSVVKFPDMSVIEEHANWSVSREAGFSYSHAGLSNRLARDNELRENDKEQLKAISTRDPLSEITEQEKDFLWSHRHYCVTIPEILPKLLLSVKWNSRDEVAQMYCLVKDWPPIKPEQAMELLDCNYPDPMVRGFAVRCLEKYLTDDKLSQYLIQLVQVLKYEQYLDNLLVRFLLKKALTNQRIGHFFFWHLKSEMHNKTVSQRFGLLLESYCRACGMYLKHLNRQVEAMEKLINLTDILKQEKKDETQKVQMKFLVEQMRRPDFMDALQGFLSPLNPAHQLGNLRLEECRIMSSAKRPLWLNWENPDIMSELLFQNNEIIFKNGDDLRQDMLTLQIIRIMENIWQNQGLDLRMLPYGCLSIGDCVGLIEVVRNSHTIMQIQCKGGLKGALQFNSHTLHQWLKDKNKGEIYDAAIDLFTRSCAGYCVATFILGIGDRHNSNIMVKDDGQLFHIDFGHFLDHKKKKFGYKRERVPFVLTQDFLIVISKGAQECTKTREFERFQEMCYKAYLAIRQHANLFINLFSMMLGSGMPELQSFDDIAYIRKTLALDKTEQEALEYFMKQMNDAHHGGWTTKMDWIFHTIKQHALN
PI3Kalpha, sequence (P27986 whole entry partner, canonical isoform): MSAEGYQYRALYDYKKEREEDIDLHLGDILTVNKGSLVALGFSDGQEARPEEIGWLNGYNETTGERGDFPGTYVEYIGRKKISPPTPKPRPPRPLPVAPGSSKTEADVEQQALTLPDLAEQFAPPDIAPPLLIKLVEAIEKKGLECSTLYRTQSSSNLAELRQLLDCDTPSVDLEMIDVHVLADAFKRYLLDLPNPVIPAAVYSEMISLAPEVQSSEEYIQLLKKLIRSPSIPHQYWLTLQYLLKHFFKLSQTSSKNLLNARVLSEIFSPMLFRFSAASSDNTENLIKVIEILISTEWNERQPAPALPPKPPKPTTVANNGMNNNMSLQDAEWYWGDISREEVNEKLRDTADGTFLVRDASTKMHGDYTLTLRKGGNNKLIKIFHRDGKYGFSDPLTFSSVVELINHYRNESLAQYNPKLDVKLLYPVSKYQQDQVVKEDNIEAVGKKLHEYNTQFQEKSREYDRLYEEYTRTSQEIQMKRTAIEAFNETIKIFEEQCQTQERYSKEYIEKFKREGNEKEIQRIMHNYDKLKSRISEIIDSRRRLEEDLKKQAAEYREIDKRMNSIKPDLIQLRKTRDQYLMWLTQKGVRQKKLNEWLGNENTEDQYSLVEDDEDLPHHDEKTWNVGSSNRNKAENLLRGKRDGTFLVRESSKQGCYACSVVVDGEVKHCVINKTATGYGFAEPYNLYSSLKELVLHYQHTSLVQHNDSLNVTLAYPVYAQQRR
PI3Kdelta, sequence (O00329 whole entry, canonical isoform): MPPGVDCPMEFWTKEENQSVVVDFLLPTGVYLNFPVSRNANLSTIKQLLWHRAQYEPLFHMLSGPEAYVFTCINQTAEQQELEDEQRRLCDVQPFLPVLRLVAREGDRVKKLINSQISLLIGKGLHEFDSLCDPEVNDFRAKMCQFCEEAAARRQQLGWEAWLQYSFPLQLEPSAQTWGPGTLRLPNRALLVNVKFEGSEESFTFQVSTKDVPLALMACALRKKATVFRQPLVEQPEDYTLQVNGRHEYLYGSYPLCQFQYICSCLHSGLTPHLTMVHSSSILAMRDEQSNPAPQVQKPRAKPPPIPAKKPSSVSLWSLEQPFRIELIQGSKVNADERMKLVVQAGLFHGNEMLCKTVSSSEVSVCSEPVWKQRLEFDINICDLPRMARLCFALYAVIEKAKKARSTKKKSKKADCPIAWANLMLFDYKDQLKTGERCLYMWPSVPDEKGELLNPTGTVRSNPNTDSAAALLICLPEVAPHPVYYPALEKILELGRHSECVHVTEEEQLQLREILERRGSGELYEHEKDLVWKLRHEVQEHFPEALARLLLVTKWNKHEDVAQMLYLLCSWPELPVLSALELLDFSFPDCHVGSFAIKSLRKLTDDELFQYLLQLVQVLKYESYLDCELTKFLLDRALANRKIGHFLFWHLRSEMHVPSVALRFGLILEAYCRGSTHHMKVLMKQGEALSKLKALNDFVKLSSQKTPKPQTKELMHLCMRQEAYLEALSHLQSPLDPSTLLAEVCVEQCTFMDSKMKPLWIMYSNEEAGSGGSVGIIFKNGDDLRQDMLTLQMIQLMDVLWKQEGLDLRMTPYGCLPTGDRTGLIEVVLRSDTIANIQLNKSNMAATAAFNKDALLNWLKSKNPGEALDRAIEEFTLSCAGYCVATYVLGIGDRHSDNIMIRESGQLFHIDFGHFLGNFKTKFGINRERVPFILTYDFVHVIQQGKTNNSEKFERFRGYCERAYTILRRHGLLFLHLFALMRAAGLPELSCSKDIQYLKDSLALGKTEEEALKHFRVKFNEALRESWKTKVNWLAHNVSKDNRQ
PI3Kdelta, sequence (P27986 whole entry partner, canonical isoform): as the sequence (P27986 whole entry partner, canonical isoform) above

Cn1cc(-c2nc(N3CCC4(CCC(=O)N4CC(F)(F)F)CC3)cnc2C#N)cn1 [Compound 1-21, 3-(1-methyl-1H-pyrazol-4-yl)-5-[2-oxo-1-(2,2,2-trifluoroethyl)-1,8-diazaspiro[4.5]dec-8-yl]pyrazine-2-carbonitrile]
Selectivity versus PI3Kalpha (PI3Kalpha): >10
IC50 (PI3Kdelta): 37 nM

CCCN1C(=O)OCC12CCN(c1cnc(C#N)c(-c3cnn(C)c3)n1)CC2 [Compound 1-22, 3-(1-methyl-1H-pyrazol-4-yl)-5-(2-oxo-1-propyl-3-oxa-1,8-diazaspiro[4.5]dec-8-yl)pyrazine-2-carbonitrile]
Selectivity versus PI3Kalpha (PI3Kalpha): >10
IC50 (PI3Kdelta): 30 nM

Cn1cc(-c2nc(N3CCC4(CC3)COC(=O)N4CC3CCC3)cnc2C#N)cn1 [Compound 1-23, 5-[1-(cyclobutylmethyl)-2-oxo-3-oxa-1,8-diazaspiro[4.5]dec-8-yl]-3-(1-methyl-1H-pyrazol-4-yl)pyrazine-2-carbonitrile]
Selectivity versus PI3Kalpha (PI3Kalpha): >10
IC50 (PI3Kdelta): 18 nM

Cn1cc(-c2nc(N3CCC4(CC3)COCC(=O)N4CC3CC3)cnc2C#N)cn1 [Compound 1-24, 5-[1-(cyclopropylmethyl)-2-oxo-4-oxa-1,9-diazaspiro[5.5]undec-9-yl]-3-(1-methyl-1H-pyrazol-4-yl)pyrazine-2-carbonitrile]
Selectivity versus PI3Kalpha (PI3Kalpha): >10
IC50 (PI3Kdelta): 10 nM

Cn1cc(-c2nc(N3CCC(C)(N4CCOCC4)CC3)cnc2C#N)cn1 [Compound 1-25, 5-(4-methyl-4-morpholin-4-ylpiperidin-1-yl)-3-(1-methyl-1H-pyrazol-4-yl)pyrazine-2-carbonitrile]
Selectivity versus PI3Kalpha (PI3Kalpha): >10
IC50 (PI3Kdelta): 52 nM

Cn1cc(-c2nc(N3CCC(C)(N4CCCCC4)CC3)cnc2C#N)cn1 [Compound 1-26, 5-(4′-methyl-1,4′-bipiperidin-1′-yl)-3-(1-methyl-1H-pyrazol-4-yl)pyrazine-2-carbonitrile]
Selectivity versus PI3Kalpha (PI3Kalpha): >10
IC50 (PI3Kdelta): 70 nM

CO[C@H]1C[C@@H](C(=O)N2CCN(c3cnc(C#N)c(-c4cnn(C)c4)n3)C[C@H]2C)C1 [Compound 1-27, 5-{(3R)-4-[(cis-3-methoxycyclobutyl)carbonyl]-3-methylpiperazin-1-yl}-3-(1-methyl-1H-pyrazol-4-yl)pyrazine-2-carbonitrile]
Selectivity versus PI3Kalpha (PI3Kalpha): >10
IC50 (PI3Kdelta): 100 nM

C[C@@H]1CN(c2cnc(C#N)c(-c3cnn(C)c3)n2)CCN1C(=O)C1CC(F)(F)C1 [Compound 1-28, 5-{(3R)-4-[(3,3-difluorocyclobutyl)carbonyl]-3-methylpiperazin-1-yl}-3-(1-methyl-1H-pyrazol-4-yl)pyrazine-2-carbonitrile]
Selectivity versus PI3Kalpha (PI3Kalpha): >10
IC50 (PI3Kdelta): 100 nM

C[C@@H]1CN(c2cnc(C#N)c(-c3cnn(C)c3)n2)CCN1C(=O)[C@@H]1C[C@@H]1F [Compound 1-29, 5-[(3R)-4-{[(1S,2S)-2-fluorocyclopropyl]carbonyl}-3-methylpiperazin-1-yl]-3-(1-methyl-1H-pyrazol-4-yl)pyrazine-2-carbonitrile]
Selectivity versus PI3Kalpha (PI3Kalpha): >10
IC50 (PI3Kdelta): 29 nM

CCC(=O)N1CCN(c2cnc(C#N)c(-c3cnn(C)c3)n2)C[C@H]1C [Compound 1-30, 5-[(3R)-3-methyl-4-propanoylpiperazin-1-yl]-3-(1-methyl-1H-pyrazol-4-yl)pyrazine-2-carbonitrile]
Selectivity versus PI3Kalpha (PI3Kalpha): >10
IC50 (PI3Kdelta): 150 nM

C[C@@H]1CN(c2cnc(C#N)c(-c3cnn(C)c3)n2)CCN1C(=O)C1(C)CC1 [Compound 1-31, 5-{(3R)-3-methyl-4-[(1-methylcyclopropyl)carbonyl]piperazin-1-yl}-3-(1-methyl-1H-pyrazol-4-yl)pyrazine-2-carbonitrile]
Selectivity versus PI3Kalpha (PI3Kalpha): >10
IC50 (PI3Kdelta): 280 nM

C[C@@H]1CN(c2cnc(C#N)c(-c3cnn(C)c3)n2)CCN1C(=O)N1CCCC1 [Compound 1-32, 3-(1-methyl-1H-pyrazol-4-yl)-5-[(3R)-3-methyl-4-(pyrrolidin-1-ylcarbonyl)piperazin-1-yl]pyrazine-2-carbonitrile]
Selectivity versus PI3Kalpha (PI3Kalpha): >10
IC50 (PI3Kdelta): 180 nM

C[C@@H]1CN(c2cnc(C#N)c(-c3cnn(C)c3)n2)CCN1C(=O)N1CC2(COC2)C1 [Compound 1-33, 5-[(3R)-3-methyl-4-(2-oxa-6-azaspiro[3.3]hept-6-ylcarbonyl)piperazin-1-yl]-3-(1-methyl-1H-pyrazol-4-yl)pyrazine-2-carbonitrile]
Selectivity versus PI3Kalpha (PI3Kalpha): >10
IC50 (PI3Kdelta): 300 nM

C[C@@H]1CN(c2cnc(C#N)c(-c3cnn(C)c3)n2)CCN1C(=O)NCC1CC1 [Compound 1-34, (2R)-4-[5-cyano-6-(1-methyl-1H-pyrazol-4-yl)pyrazin-2-yl]-N-(cyclopropylmethyl)-2-methylpiperazine-1-carboxamide]
Selectivity versus PI3Kalpha (PI3Kalpha): >10
IC50 (PI3Kdelta): 210 nM

CO[C@H]1CCN(C(=O)N2CCN(c3cnc(C#N)c(-c4cnn(C)c4)n3)C[C@H]2C)C1 [Compound 1-35, 5-[(3R)-4-{[(3S)-3-methoxypyrrolidin-1-yl]carbonyl}-3-methylpiperazin-1-yl]-3-(1-methyl-1H-pyrazol-4-yl)pyrazine-2-carbonitrile]
Selectivity versus PI3Kalpha (PI3Kalpha): >10
IC50 (PI3Kdelta): 110 nM

COC1CN(C(=O)N2CCN(c3cnc(C#N)c(-c4cnn(C)c4)n3)C[C@H]2C)C1 [Compound 1-36, 5-{(3R)-4-[(3-methoxyazetidin-1-yl)carbonyl]-3-methylpiperazin-1-yl}-3-(1-methyl-1H-pyrazol-4-yl)pyrazine-2-carbonitrile]
Selectivity versus PI3Kalpha (PI3Kalpha): >10
IC50 (PI3Kdelta): 160 nM

C[C@@H]1CN(c2cnc(C#N)c(-c3cnn(C)c3)n2)CCN1C(=O)N1CCC1 [Compound 1-37, 5-[(3R)-4-(azetidin-1-ylcarbonyl)-3-methylpiperazin-1-yl]-3-(1-methyl-1H-pyrazol-4-yl)pyrazine-2-carbonitrile]
Selectivity versus PI3Kalpha (PI3Kalpha): >10
IC50 (PI3Kdelta): 53 nM

COC(=O)N1CCN(c2cnc(C#N)c(-c3cnn(C)c3)n2)C[C@H]1C [Compound 1-38, methyl (2R)-4-[5-cyano-6-(1-methyl-1H-pyrazol-4-yl)pyrazin-2-yl]-2-methylpiperazine-1-carboxylate]
Selectivity versus PI3Kalpha (PI3Kalpha): >10
IC50 (PI3Kdelta): 210 nM

C[C@@H]1C[C@H]1C(=O)N1CCN(c2cnc(C#N)c(-c3cn[nH]c3)n2)C[C@H]1C [Compound 1-39, 5-[(3R)-3-methyl-4-{[(1R,2R)-2-methylcyclopropyl]carbonyl}piperazin-1-yl]-3-(1H-pyrazol-4-yl)pyrazine-2-carbonitrile]
Selectivity versus PI3Kalpha (PI3Kalpha): >10
IC50 (PI3Kdelta): 50 nM
